Laboratory results published in patent US20080318931A1, “Treatment of Disorders and Diseases of the Colon” (priority 2004, published 2008).
“Also recorded” adds a separate entry of the source.

Experiments:
[1] = tested on: Human Colon carcinoma (HT29) cell-line; experiment: Viability of human colon carcinoma HT29 cells, alamar blue and neutral red; format: cell-based; conditions: for cell viability / responsiveness of HT29 cells: FIG. 13; for inhibition of cell viability: 10-30 μM, FIG. 14
Description: Human Colon carcinoma (HT29) cell-line (ATCC USA) was maintained in RPMI medium supplemented with 10% fetal calf serum and penicillin (100 u/ml), streptomycin (100 mcg/ml), nystatin (12.5 u/ml), L-glutamine (2 mM). Confluent cultures were washed with phosphate-buffered saline (PBS), detached with trypsine (0.25%), centrifuged, and subcultured in 96-well microtiter test plates. Cells were exposed to vehicle or to psychotropic drugs. Cell viability was measured 24 hours later using the alamar blue and neutral red methods. Results were expressed as % of controls (vehicle treated cells). Each sample is the Mean+/−[…] of 4 determinations.

[2] = tested on: ConA-induced mouse splenocytes; experiment: Con-A-induced mouse splenocyte proliferation/viability, alamar blue; format: cell-based; conditions: for cytotoxicity at 20 µM: Mus musculus, Splenocyte, read-out: inhibition of cell viability; for ConA (mitogen)-induced splenocyte proliferation: 2.5-10 μM, alamar blue
Description: (§1) Mouse splenocytes were isolated from C57b1 healthy female mice. Cells (10,000/well) were tested under basal and ConA stimulation. Cells were treated with vehicle, dexamethasone or antidepressants (2.5-10 μM). Viability was assessed 48 hr later using alamar blue staining. (Reagents were manufactured by Wildflower, Santa Fe, N. Mex., USA.) Alamar blue assay was performed as in Nociari et al (1998).
(§2) Effect of paroxetine, (SSRI) and clomipramine (TCA) as compared to dexamethasone on Con-A-induced splenocyte proliferation (alamar blue method), and splenocyte-induced secretion of TH1 cytokines TNF-α, IL2 and INFγ, 1×10^6 cells/well, was measured 48 hours after exposure to drugs (2.5-10 μM).
In particular, mouse splenocytes were isolated from C57BL healthy female mice. Cells (10,000/well) were then exposed to Con-A (5 μM) and treated with either the vehicle, with dexamethasone or with a drug (2.5-10 μM).
Cell viability was assessed 48 hr later using Alamar blue staining. The results are presented in FIG. 4, where each point is the graph represents the mean of 4 determinations. […]. The IC50 determined for the antidepressant drugs was in the range of 2.5-5.5 μM.
Cells were treated with vehicle, or the antidepressants (2.5-20 μM). Viability was assessed 48 hours later using alamar blue staining. (Each point is the mean+/−SEM of 4 determinations).

[3] = tested on: TH1 cytokines TNF-α, IL2 and INFγ; experiment: TH1 cytokine secretion (TNF-α, IL2, INFγ) from Con-A-induced splenocytes, ELISA; format: cell-based, mouse; conditions: 2.5-10 μM, 48 hours, 1×10^6 cells/well
Description: as §2
Cytokines were determined in the supernatant of the splenocyte specimens using an ELISA kit and protocol (Reagents by Cytolab). […] The pattern observed resembles that of dexamethasone.

human PBMC = experiment: Viability of LPS-exposed human PBMC, alamar blue; format: cell-based; conditions: LPS 2 ug/well, 2.5-30 μM, 48 hours, both subjects
Description: Human PBMC were isolated from whole blood of 2 healthy volunteers (A and B subjects). Cells (2×10^6/ml) were exposed to LPS (2 ug/well) and treated with either the vehicle, or with paroxetine, sertraline, clomipramine and trifluoperazine (2.5-30 μM).

[4] = tested on: mouse splenocytes (basal); experiment: Basal mouse splenocyte viability, alamar blue; format: cell-based; conditions: 2.5-10 μM, 48 hr
Description: as §1

[5] = tested on: splenocytes derived from treated mice; experiment: ConA/basal proliferation ratio of splenocytes from mice treated in vivo for 7 days; parameters: species or system mouse; conditions: paroxetine 7.5, clomipramine 15 mg/kg x3/week i.p., Con A 5 μM in vitro
Description: Paroxetine or clomipramine were administered at 7.5 and 15 mg/kg x3/week i.p, respectively. Splenocytes were derived from treated animals.
Each group represents the mean of a pool of 5 animals.

[6] = tested on: Con-A activated splenocytes; experiment: cells; conditions: Mus musculus, Splenocyte, read-out: inhibition of viability, splenocytes from naïve animals
Description: (§4) LPS (manufactured by Sigma St. Louis Mo., USA, cat no L2880) was administered at 100 μg/mouse×2, on day 7 and day 14).

INF-γ = INF-γ secretion from Con-A activated mouse splenocytes, ELISA; format: cell-based; conditions: Splenocyte; for inhibition at 10 µM: read-out: maximal inhibition of INF-γ
Description: INF-γ was determined in the supernatant of the splenocyte specimens using ELISA kit and protocol (Manufactured by Cytolab).

[7] = chitosan capsules, colon targeting technology; cited from earlier work
C-jun = C-jun expression in HT29 cells, western blot; format: cell-based, human; conditions: 10 and 20 μM, 24 hr
Description: (§3) The effect of paroxetine and sertraline on the expression of bcl-2 and C-jun was evaluated in human colon HT29 cell-line 24 hr after drug administration, using western blot analysis for C-jun and bcl-2 and specific antibodies.

[8] = tested on: HT29 human colon cancer tumor; experiment: HT29 human colon cancer tumor growth in nude mice; format: in vivo, mouse; conditions: 20 mg/kg s.c ×3/week, after 3 courses
Description: The in-vivo anti tumor activity of active antidepressants was assessed in animal model of cancer. Five Nude mice (males, 6 weeks of age) were inoculated with HT29 cells (4,000,000/100 μL) by subcutaneous (s.c.) administration. […] Sertraline therapy was initiated on the 7th day after cell grafting. 3 animals were treated with sertraline (20 mg/kg s.c×3/week) near the cancerous area and 2 animals served as controls.

Cyclooxygenase-2 (Cox-2) = experiment: Cox-2 expression in ConA stimulated mouse splenocytes, Western blot; format: cell-based; conditions: 5 μM, normalized to actin
Description: Determination was performed using Western blot analysis and quantitative dencitometry of blot.
For each sample 2×10^7 cells were used. Cells were lysed, and equal amounts of protein was fractionated on polyacrylamide gel and then transferred to PVDF membrane. The amount of the protein was detected by immuno-blotting with […] anti-Cox-2 anti body (Murine anti COX2 Polyclonal Cat. 160126, Ann Arbor, Mich., USA. 2nd antibody conjugated to horseradish peroxidase was used and visualized with chemiluminescent Kit (Pierce, Rockford, Ill., USA) on film. Quantification of blot was performed using a densitometry apparatus (VersaDoc™ imaging system, BioRad, USA) and levels were normalized to actin.

[9] = tested on: Con-A activated splenocytes; conditions: 5 μM
Description: as §4

bcl-2 = bcl-2 expression in HT29 cells, western blot; format: cell-based, human; conditions: 10 and 20 μM, 24 hr
Description: as §3

SMILES: O=c1[nH]cc(F)c(=O)[nH]1 [5FU, 5fluoro uracil]
- cell viability / responsiveness of HT29 cells ([1]; 24 hours): resistance

SMILES: CN(C)CCC=C1c2ccccc2CCc2ccccc21 [amitriptyline]
- maximal inhibition of cell viability ([2]; 2.5-20 μM, 48 hours): 80.7%

SMILES: CN(C)CCCC1(c2ccc(F)cc2)OCc2cc(C#N)ccc21 (stereo not drawn) [citalopram]
- cytotoxicity at 20 µM ([2]; 48 hours): 49%

SMILES: CN(C)CCCN1c2ccccc2CCc2ccc(Cl)cc21 [clomipramine]
- lymphocyte-induced pro-inflammatory cytokine secretion [3]: decrease
- order of potency, decrease in cell viability (human PBMC): sertraline>paroxetine>trifluoperazine>/=clomipramine
- inhibition of cell viability [1]: 38%
- basal splenocyte proliferation [4]: dose dependent decrease
- capacity to respond to Con-A (ratio ConA/basal) vs vehicle treated mice [5]: lower capacity to respond to exogenous stimulus of Con-A
- ConA (mitogen)-induced splenocyte proliferation ([2]; 48 hr): dose dependent decrease; also recorded: dose-dependent decrease

SMILES: C[C@@H]1C[C@H]2[C@@H]3CCC4=CC(=O)C=C[C@]4(C)[C@@]3(F)[C@@H](O)C[C@]2(C)[C@@]1(O)C(=O)CO [dexamethasone]
- cytotoxicity at 5 µM [6]: 60%
- inhibition at 2.5 µM (INF-γ; 2.5 μM): 83%

SMILES: CN(C)CCC=C1c2ccccc2COc2ccccc21 [doxepine]
- cytotoxicity at 20 µM ([2]; 48 hours): 38%

SMILES: COc1cccc2c1C(=O)c1c(O)c3c(c(O)c1C2=O)C[C@@](O)(C(=O)CO)C[C@@H]3O[C@H]1C[C@H](N)[C@H](O)[C@H](C)O1 [doxorubicin]
- cell viability / responsiveness of HT29 cells ([1]; 24 hours): only partial responsiveness

SMILES: OCCN1CCN(CCCN2c3ccccc3Sc3ccc(C(F)(F)F)cc32)CC1 [fluphenazine]
- cell viability / responsiveness of HT29 cells ([1]; 24 hours): dose dependent decrease

SMILES: COCCCC/C(=N\OCCN)c1ccc(C(F)(F)F)cc1 [fluvoxamine]
- inhibition at 10 µM (INF-γ): 51%

SMILES: Nc1ccc(O)c(C(=O)O)c1 [mesalamine]
- decrease in systemic exposure [7]: 50%

SMILES: OCCN1CCN(CCCN2c3ccccc3Sc3ccc(Cl)cc32)CC1 [perphenazine]
- cell viability / responsiveness of HT29 cells ([1]; 24 hours): dose dependent decrease

SMILES: CN[C@H]1CC[C@@H](c2ccc(Cl)c(Cl)c2)c2ccccc21 [sertraline]
- cytotoxicity at 5 µM [6]: 40%
- expression of C-jun (C-jun): stimulation
- tumor growth vs untreated controls (1 animal) [8]: prevention of tumor growth
- tumor growth vs untreated controls (2 other animals) [8]: decrease in tumor growth
- order of potency, decrease in cell viability (human PBMC): sertraline>paroxetine>trifluoperazine>/=clomipramine
- reduction of Cox-2 expression (Cyclooxygenase-2 (Cox-2)): 24.3%
- response of splenocytes from LPS mice treated in vivo with sertraline ([9]; LPS mice + sertraline 5 mg/kg×3/week two weeks): more responsive
- response of splenocytes from LPS mice ([9]; LPS-treated mice): in a manner similar to the naive animals
- inhibition of cell viability [1]: up to 75%
- expression of bcl-2 (bcl-2): inhibition
- ConA (mitogen)-induced splenocyte proliferation ([2]; 48 hr): dose-dependent decrease
- cell viability compared to dexamethasone ([2]; Con-A 5 μM, drug 2.5-10 μM, 48 hr): decreased cell viability to the same extent as compared to dexamethasone

SMILES: CSc1ccc2c(c1)N(CCC1CCCCN1C)c1ccccc1S2 (stereo not drawn) [thioridazine]
- cell viability / responsiveness of HT29 cells ([1]; 24 hours): dose dependent decrease
- cytotoxicity at 20 µM ([1]; Homo sapiens, HT-29, 20 μM, 24 hours, read-out: inhibition of cell viability): 85%

SMILES: CN1CCN(CCCN2c3ccccc3Sc3ccc(C(F)(F)F)cc32)CC1 [trifluoperazine]
- order of potency, decrease in cell viability (human PBMC): sertraline>paroxetine>trifluoperazine>/=clomipramine

SMILES: COc1ccc(C(CN(C)C)C2(O)CCCCC2)cc1 (stereo not drawn) [venlafaxine]
- inhibition at 10 µM (INF-γ): 16%
